What was measured:
α receptors (α2:α1) = conditions: affinity ratio; cited from earlier work
pupil = test: Pupil dilation measured with Neuroptics pupillometer after α-2 agonist pre-treatment and/or phenylephrine; format: in vivo, human
Description: Dilation medication used was Phenylephrine hydrochloride 10% (Akorn, Inc). Pupillometer used was a Neuroptics DP-2000 Binocular Pupillometer).
Dilation using phenylephrine hydrochloride 10% was conducted in both eyes of the test subject to use as a control against the other compounds being tested.
After this, dilation using phenylephrine hydrochloride 2.5% or phenylephrine hydrochloride 10% was conducted to investigate the effects of the compound on pupil dilation.
Apracionidine 0.5% was administered in the right eye of the test subject three (3) times a day for 4 days. After this, dilation using phenylephrine hydrochloride 10% was conducted to investigate the effects of the compound on pupil dilation.
After this, dilation using phenylephrine hydrochloride 10% was conducted to investigate the effects of the compound on pupil dilation.
A washout period of multiple months was undertaken in between each experiment.
Pupil measurements were obtained using a Neuroptics pupillometer. Parameters were as follows: Scotopic conditions for 1 second, followed by photopic conditions for 4 seconds (1258.925 lux), followed by scotopic conditions for 10 seconds. This allowed for investigation of scotopic pupil size, photopic pupil size, and scotopic pupil size recovery after the light stimulus concluded.
The pupils of the subject's pretreated right eye and untreated control left eye were then measured under both scotopic and photopic conditions for baseline measurements (FIG. 6A). Photopic conditions consisted of a 4 second window where a light was shining in both eyes simultaneously. […]
The experiment was repeated at a higher dosage wherein the subject was administered a second ophthalmic formulation containing 10% phenylephrine to both eyes. 30 minutes after instillation of 10% phenylephrine, the pupils of the subject were then measured under both scotopic and photopic conditions (FIG. 6C). […] Because the area of a circle is dependent on the radius squared (area of a circle=πr^2), the increase in area that is created from a increasing the pupil dilation size is not linear.
The results were then compared.

iris = conditions: men taking tamsulosin, 10 retrospective and prospective studies; cited from earlier work
[1] = after pre-treatment of right eye only, 3 times a day for 4 days, before phenylephrine
[2] = after pre-treatment of right eye only, 3 times a day for 4 days, before phenylephrine, left eye not treated
[3] = dilation pre and post treatment with α 2 agonist: treated eye vs control measurements of same eye
[4] = non-treated eye dilation compared to treated eye dilation
[5] = photopic conditions (1258.925 lux) after dilation with phenylephrine 10%
[6] = photopic conditions (1258.925 lux) after dilation with phenylephrine 10%, eye without pre-treatment
[7] = right eye pre-treated 3 times a day for 4 days, then phenylephrine 10% both eyes
[8] = right eye pre-treated 3 times a day for 4 days, then phenylephrine 10% both eyes, left eye not pre-treated

Cc1cccc([C@H](C)c2cnc[nH]2)c1C [Dexmedetomidine, dexmedetomidine]
α2:α1 affinity (α receptors (α2:α1)): 1620 | increase of surgical work area compared to the pre-treatment control dilation amount in the same eye (pupil; after dilation with phenylephrine hydrochloride 10%): +220% | CH LStim Ave (pupil; [1]): 64% | CH RPupil Ave (pupil; [1]): 64% | CH RStim Ave (pupil; [1]): 64% | CH Right (pupil; [1]): 64% | CLAT LStim Ave (pupil; [1]): 0.36 s | CLAT RPupil Ave (pupil; [1]): 0.38 s | CLAT RStim Ave (pupil; [1]): 0.36 s | CLAT Right (pupil; [1]): 0.38 s | DELTA LStim Ave (pupil; [1]): 4.01 mm | DELTA RPupil Ave (pupil; [1]): 4.19 mm | DELTA RStim Ave (pupil; [1]): 4.01 mm | DV LStim Ave (pupil; [1]): 0.95 mm/s | DV RPupil Ave (pupil; [1]): 0.96 mm/s | DV RStim Ave (pupil; [1]): 0.95 mm/s | DV Right (pupil; [1]): 0.96 mm/s | MCV LStim Ave (pupil; [1]): 5.42 mm/s | MCV RPupil Ave (pupil; [1]): 5.84 mm/s | MCV RStim Ave (pupil; [1]): 5.42 mm/s | Max LStim Ave (pupil; [1]): 6.30 mm | Max RStim Ave (pupil; [1]): 6.30 mm | Max Right (pupil; [1]): 6.57 mm | Min LStim Ave (pupil; [1]): 2.29 mm | Min RPupil Ave (pupil; [1]): 2.38 mm | Min RStim Ave (pupil; [1]): 2.29 mm | Min Right (pupil; [1]): 2.38 mm | CH LPupil Ave (pupil; [2]): 64% | CH Left (pupil; [2]): 64% | CLAT LPupil Ave (pupil; [2]): 0.34 s | CLAT Left (pupil; [2]): 0.34 s | DELTA Left (pupil; [2]): 3.83 mm | DV Left (pupil; [2]): 0.94 mm/s | MCV Left (pupil; [2]): 4.99 mm/s | Max Left (pupil; [2]): 6.03 mm | Min Left (pupil; [2]): 2.20 mm | Pupil size change (%) (pupil; [3]): +78.83% | Surgical work area change (%) (pupil; [3]): +219.8% | Pupil size change (%) (pupil; [4]): +74.46% | Surgical work area (%) (pupil; [4]): +204.4% | Pupil size, Treated eye (pupil; [5]): 6.42 mm | Surgical Work area, Treated eye (pupil; [5]): 32.35 mm^2 | Pupil size, Non-treated eye (pupil; [6]): 3.68 mm | Surgical Work area, Non-treated eye (pupil; [6]): 10.63 mm^2 | CH LStim Ave (pupil; [7]): 46% | CH RPupil Ave (pupil; [7]): 34% | CH RStim Ave (pupil; [7]): 46% | CH Right (pupil; [7]): 34% | CLAT LStim Ave (pupil; [7]): 0.20 s | CLAT RPupil Ave (pupil; [7]): 0.16 s | CLAT RStim Ave (pupil; [7]): 0.20 s | CLAT Right (pupil; [7]): 0.16 s | DELTA LStim Ave (pupil; [7]): 4.22 mm | DELTA RPupil Ave (pupil; [7]): 3.31 mm | DELTA RStim Ave (pupil; [7]): 4.22 mm | DV LStim Ave (pupil; [7]): 0.94 mm/s | DV RPupil Ave (pupil; [7]): 0.80 mm/s | DV RStim Ave (pupil; [7]): 0.94 mm/s | DV Right (pupil; [7]): 0.80 mm/s | MCV LStim Ave (pupil; [7]): 3.24 mm/s | MCV RPupil Ave (pupil; [7]): 2.49 mm/s | MCV RStim Ave (pupil; [7]): 3.24 mm/s | Max LStim Ave (pupil; [7]): 9.27 mm | Max RStim Ave (pupil; [7]): 9.27 mm | Max Right (pupil; [7]): 9.73 mm | Min LStim Ave (pupil; [7]): 5.05 mm | Min RPupil Ave (pupil; [7]): 6.42 mm | Min RStim Ave (pupil; [7]): 5.05 mm | Min Right (pupil; [7]): 6.42 mm | CH LPupil Ave (pupil; [8]): 58% | CH Left (pupil; [8]): 58% | CLAT LPupil Ave (pupil; [8]): 0.24 s | CLAT Left (pupil; [8]): 0.24 s | DELTA Left (pupil; [8]): 5.13 mm | DV Left (pupil; [8]): 1.08 mm/s | MCV Left (pupil; [8]): 4.00 mm/s | Max Left (pupil; [8]): 8.81 mm | Min Left (pupil; [8]): 3.68 mm

CCOc1ccccc1OCCN[C@H](C)Cc1ccc(OC)c(S(N)(=O)=O)c1 [tamsulosin]
risk of IFIS (iris): up to 90%

From US11738022B2, “Methods for inducing pupil dilation” (THE REGENTS OF THE UNIVERSITY OF COLORADO, A BODY CORPORATE, priority 2017, dated 2023)
